Reference: US20250320193A1, “OXOISOINDOLINYL SUBSTITUTED PIPERIDINEDIONE DERIVATIVE AND USE THEREOF” (GLUETACS THERAPEUTICS (SHANGHAI) CO., LTD., priority 2022, published 2025)
Read-outs that look alike come from different tables or passages of the source.

Key:
[1] = target: human Cereblon WT GST-tagged protein (Homo sapiens (Human), UniProt Q96SW2); assay: CRBN-binding affinity, HTRF (CEREBLON BINDING kit, CISBIO); details: HTRF inhibitory activity
Summary of the method: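 Compounds were mixed with GST-tagged human Cereblon WT protein, then with Thalidomide-Red tracer and GST Eu antibody, and binding was read by HTRF. Inhibition rate was calculated from 620 nm emission relative to blank control wells (no protein) and solvent control wells.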

[2] = tested on: MDA-MB-231 cells (human breast adenocarcinoma cells); assay: Tumor cell proliferation inhibition, CCK-8; assay type: cell-based
Summary of the method: (§1)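 Growth inhibition is measured by CCK-8 cell viability; IC50 is calculated from the dose–response curve. Compounds are added 24 h after seeding, starting at 10 μM and diluted 5-fold across 10 concentrations.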

[3] = tested on: CCRF-CEM (human acute lymphoblastic leukemia T-cells); assay: Tumor cell proliferation inhibition, CCK-8; assay type: cell-based
Summary of the method: as §1

[4] = tested on: CAL-62 (human thyroid carcinoma cells); assay: Tumor cell proliferation inhibition, CCK-8; assay type: cell-based
Summary of the method: as §1

[5] = tested on: Jurkat cells (human T-cell leukemia cells); assay: Tumor cell proliferation inhibition, CCK-8; assay type: cell-based
Summary of the method: as §1

[6] = tested on: MM.1R cells (dexamethasone-resistant human multiple myeloma cells); assay: Tumor cell proliferation inhibition, CCK-8; assay type: cell-based
Summary of the method: as §1

[7] = tested on: MM.1S cells (human multiple myeloma cells); assay: Tumor cell proliferation inhibition, CCK-8; assay type: cell-based; details: MM1.S
Summary of the method: as §1

[8] = tested on: TMD8 cells (human diffuse large B-cell lymphoma cells); assay: Tumor cell proliferation inhibition, CCK-8; assay type: cell-based
Summary of the method: as §1

[9] = tested on: Kasumi-1 (human acute myeloid leukemia cells); assay: Tumor cell proliferation inhibition, CCK-8; assay type: cell-based
Summary of the method: as §1

[10] = tested on: H146 cells (human small cell lung carcinoma cells); assay: Tumor cell proliferation inhibition, CCK-8; assay type: cell-based
Summary of the method: as §1

GSPT1 = GSPT1 (Homo sapiens (Human), UniProt P15170+Q96SW2); assay: Western blot, substrate protein expression in hPBMC: GSPT1; assay type: cell-based; details: hPBMC, compound 500 nM, 24 hours, Western blot
GSPT1, sequence (P15170 whole entry): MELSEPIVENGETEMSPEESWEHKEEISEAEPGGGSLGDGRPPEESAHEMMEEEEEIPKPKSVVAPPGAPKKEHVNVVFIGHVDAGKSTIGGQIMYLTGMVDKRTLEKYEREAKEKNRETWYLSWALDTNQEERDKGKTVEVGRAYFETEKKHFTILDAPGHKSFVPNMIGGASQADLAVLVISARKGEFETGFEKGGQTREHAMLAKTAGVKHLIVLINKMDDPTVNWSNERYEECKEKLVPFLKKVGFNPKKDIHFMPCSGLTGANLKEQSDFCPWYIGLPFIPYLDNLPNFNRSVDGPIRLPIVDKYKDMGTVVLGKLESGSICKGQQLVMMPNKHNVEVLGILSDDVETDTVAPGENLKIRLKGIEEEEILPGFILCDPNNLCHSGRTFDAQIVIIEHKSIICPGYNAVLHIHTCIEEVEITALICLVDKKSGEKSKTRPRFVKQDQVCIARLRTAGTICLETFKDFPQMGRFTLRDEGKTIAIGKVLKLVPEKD
GSPT1, sequence (Q96SW2 whole entry): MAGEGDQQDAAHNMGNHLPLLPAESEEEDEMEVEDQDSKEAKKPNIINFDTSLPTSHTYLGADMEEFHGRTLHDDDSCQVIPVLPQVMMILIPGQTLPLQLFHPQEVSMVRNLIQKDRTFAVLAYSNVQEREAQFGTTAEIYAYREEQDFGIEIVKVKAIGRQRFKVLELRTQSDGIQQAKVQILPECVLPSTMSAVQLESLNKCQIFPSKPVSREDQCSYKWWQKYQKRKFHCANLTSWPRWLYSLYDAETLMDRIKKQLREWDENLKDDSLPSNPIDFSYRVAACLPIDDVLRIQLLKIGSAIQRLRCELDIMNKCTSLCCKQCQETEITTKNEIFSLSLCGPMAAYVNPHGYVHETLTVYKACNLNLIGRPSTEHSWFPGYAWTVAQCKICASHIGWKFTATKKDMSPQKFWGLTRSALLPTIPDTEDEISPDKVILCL
GSPT1, sequence (Q16531 whole entry partner): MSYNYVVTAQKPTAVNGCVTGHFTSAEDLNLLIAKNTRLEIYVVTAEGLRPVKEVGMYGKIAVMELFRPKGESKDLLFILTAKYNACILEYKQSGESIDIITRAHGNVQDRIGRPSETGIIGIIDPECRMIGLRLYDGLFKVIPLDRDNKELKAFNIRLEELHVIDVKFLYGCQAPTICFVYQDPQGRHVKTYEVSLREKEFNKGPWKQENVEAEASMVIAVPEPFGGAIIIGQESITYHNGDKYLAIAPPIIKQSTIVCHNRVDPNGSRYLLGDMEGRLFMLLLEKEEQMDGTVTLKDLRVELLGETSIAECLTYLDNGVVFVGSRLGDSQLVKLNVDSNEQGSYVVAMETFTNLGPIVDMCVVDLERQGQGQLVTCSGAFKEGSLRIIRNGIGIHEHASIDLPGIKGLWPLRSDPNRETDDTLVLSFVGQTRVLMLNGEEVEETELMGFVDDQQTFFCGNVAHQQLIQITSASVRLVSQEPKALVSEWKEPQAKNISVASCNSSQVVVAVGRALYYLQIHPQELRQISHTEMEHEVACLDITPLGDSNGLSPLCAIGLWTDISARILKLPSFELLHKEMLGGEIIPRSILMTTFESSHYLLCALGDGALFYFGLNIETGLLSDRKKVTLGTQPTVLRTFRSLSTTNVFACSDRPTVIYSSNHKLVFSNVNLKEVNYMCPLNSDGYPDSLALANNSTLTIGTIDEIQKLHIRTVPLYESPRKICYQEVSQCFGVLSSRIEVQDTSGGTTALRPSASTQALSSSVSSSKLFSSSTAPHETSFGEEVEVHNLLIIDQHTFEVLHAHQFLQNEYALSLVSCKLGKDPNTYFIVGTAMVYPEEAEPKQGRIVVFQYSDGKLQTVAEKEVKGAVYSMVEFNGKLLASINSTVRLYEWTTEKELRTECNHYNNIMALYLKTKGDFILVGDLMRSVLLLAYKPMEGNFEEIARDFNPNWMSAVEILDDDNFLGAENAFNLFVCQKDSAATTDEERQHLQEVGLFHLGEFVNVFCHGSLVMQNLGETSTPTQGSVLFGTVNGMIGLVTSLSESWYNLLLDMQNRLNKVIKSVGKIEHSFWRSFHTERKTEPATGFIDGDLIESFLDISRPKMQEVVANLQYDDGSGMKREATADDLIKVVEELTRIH
Summary of the method: (§2)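 hPBMC, 1×10^6 cells/mL, 24 h compound exposure; RIPA lysis, BCA protein assay, SDS-PAGE, NC membrane immunoblot. Densitometry vs internal control → % protein remaining; degradation % = 100% − remaining; DC50 = conc. at 50% of DMSO band signal.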

IKZF3 = IKZF3 (Homo sapiens (Human), UniProt Q96SW2+Q9UKT9); assay: Western blot, substrate protein expression in hPBMC: IKZF3; assay type: cell-based; details: hPBMC, compound 500 nM, 24 hours, Western blot
IKZF3, sequence (Q9UKT9 whole entry): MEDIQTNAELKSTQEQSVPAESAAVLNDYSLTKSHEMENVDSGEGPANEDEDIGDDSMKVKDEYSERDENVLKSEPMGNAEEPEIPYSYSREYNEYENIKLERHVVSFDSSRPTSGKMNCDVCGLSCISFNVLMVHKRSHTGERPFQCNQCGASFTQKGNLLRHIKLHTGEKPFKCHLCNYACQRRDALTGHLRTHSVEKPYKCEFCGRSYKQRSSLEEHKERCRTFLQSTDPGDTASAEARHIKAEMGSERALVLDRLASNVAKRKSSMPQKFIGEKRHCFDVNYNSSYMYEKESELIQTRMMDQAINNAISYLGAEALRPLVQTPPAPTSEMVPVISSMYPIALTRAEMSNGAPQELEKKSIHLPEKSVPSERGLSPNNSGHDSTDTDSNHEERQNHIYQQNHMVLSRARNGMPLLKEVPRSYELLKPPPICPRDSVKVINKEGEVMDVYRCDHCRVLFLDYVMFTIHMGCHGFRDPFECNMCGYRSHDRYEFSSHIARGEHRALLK
IKZF3, sequence (Q96SW2 whole entry): as the sequence (Q96SW2 whole entry) above
IKZF3, sequence (Q16531 whole entry partner): as the sequence (Q16531 whole entry partner) above
Summary of the method: as §2

IKZF1 = IKZF1 (Homo sapiens (Human), UniProt Q13422+Q96SW2); assay: Western blot, substrate protein expression in hPBMC: IKZF1; assay type: cell-based; details: hPBMC, compound 500 nM, 24 hours, Western blot
IKZF1, sequence (Q13422 whole entry): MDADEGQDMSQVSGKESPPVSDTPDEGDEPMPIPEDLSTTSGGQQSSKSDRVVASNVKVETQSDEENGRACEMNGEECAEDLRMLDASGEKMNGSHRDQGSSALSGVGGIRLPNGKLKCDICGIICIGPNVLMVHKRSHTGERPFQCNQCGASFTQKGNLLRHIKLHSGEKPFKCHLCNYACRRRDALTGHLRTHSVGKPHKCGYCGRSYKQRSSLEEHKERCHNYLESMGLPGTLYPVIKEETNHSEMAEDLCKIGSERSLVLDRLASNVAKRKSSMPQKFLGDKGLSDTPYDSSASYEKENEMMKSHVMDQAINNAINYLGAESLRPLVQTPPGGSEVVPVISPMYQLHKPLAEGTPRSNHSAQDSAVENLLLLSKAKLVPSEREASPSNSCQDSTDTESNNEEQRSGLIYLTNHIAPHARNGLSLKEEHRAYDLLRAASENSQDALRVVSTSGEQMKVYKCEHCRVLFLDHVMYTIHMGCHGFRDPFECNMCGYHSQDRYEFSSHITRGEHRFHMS
IKZF1, sequence (Q96SW2 whole entry): as the sequence (Q96SW2 whole entry) above
IKZF1, sequence (Q16531 whole entry partner): as the sequence (Q16531 whole entry partner) above
Summary of the method: as §2

[11] = MDA-MB-231 cells, CCK-8, read-out: inhibitory activity (IC50, nM) MDA-MB-231
[12] = CCRF-CEM cells, CCK-8, read-out: inhibitory activity (IC50, nM) CCRF-CEM
[13] = CAL-62 cells, CCK-8, read-out: inhibitory activity (IC50, nM) CAL-62
[14] = Jurkat cells, CCK-8, read-out: inhibitory activity (IC50, nM) Jurkat
[15] = MM.1R cells, CCK-8, read-out: inhibitory activity (IC50, nM) MM.1R
[16] = MM.1S cells, CCK-8, read-out: inhibitory activity (IC50, nM) MM.1S
[17] = TMD8 cells, CCK-8, read-out: inhibitory activity (IC50, nM) TMD8
[18] = Kasumi-1 cells, CCK-8, read-out: inhibitory activity (IC50, nM) Kasumi-1
[19] = NCI-H146, H146 cells, CCK-8, read-out: inhibitory activity (IC50, nM) H146

human Cereblon WT GST-tagged protein, sequence (Q96SW2 whole entry): as the sequence (Q96SW2 whole entry) above

SMILES	IC50 [1]	IC50 [2, 11]	IC50 [3, 12]	IC50 [4, 13]	IC50 [5, 14]	IC50 [6, 15]	IC50 [7, 16]	IC50 [8, 17]	IC50 [9, 18]	IC50 [10, 19]	substrate protein remaining % GSPT1 (GSPT1)	substrate protein remaining % IKZF3 (IKZF3)	substrate protein remaining % IKZF1 (IKZF1)	also measured
O=C1CCC(N2Cc3cc(CN4CCN(C(c5ccccc5)c5ccccc5)CC4)ccc3C2=O)C(=O)N1 (stereo not shown) [GT-03245, 3-(5-((4-benzhydrylpiperazin-1-yl)methyl)-1-oxoisoindolin-2-yl)piperidine-2,6-dione]	500 to 1000 nM	1 to 10 nM	< 1 nM	< 1 nM	1 to 10 nM	< 1 nM	1 to 10 nM	10 to 50 nM	< 1 nM	10 to 50 nM	A (A represents 0% ≤ substrate protein remaining % ≤ 50%)	A (A represents 0% ≤ substrate protein remaining % ≤ 50%)	A (A represents 0% ≤ substrate protein remaining % ≤ 50%)	
O=C1CCC(N2Cc3cc(CN4CCN(C(c5ccc(F)cc5)c5ccc(F)cc5)CC4)ccc3C2=O)C(=O)N1 (stereo not shown) [GT-03386, 3-(5-((4-(bis(4-fluorophenyl)methyl)piperazin-1-yl)methyl)-1-oxoisoindolin-2-yl)piperidine-2,6-dione]	500 to 1000 nM	10 to 50 nM	1 to 10 nM	1 to 10 nM	10 to 50 nM	1 to 10 nM	1 to 10 nM	50 to 100 nM	10 to 50 nM	50 to 100 nM	A (A represents 0% ≤ substrate protein remaining % ≤ 50%)	A (A represents 0% ≤ substrate protein remaining % ≤ 50%)	A (A represents 0% ≤ substrate protein remaining % ≤ 50%)	
O=C1CCC(N2Cc3cc(CN4CCN(C(c5ccccc5)c5ccccc5)CC4)cc(F)c3C2=O)C(=O)N1 (stereo not shown) [GT-03467, 3-(5-((4-benzhydrylpiperazin-1-yl)methyl)-7-fluoro-1-oxoisoindolin-2-yl)piperidine-2,6-dione]	500 to 1000 nM	100 to 500 nM	10 to 50 nM				100 to 500 nM		50 to 100 nM					
O=C1CCC(N2Cc3cc(CN4CCN(C(c5ccc(Cl)cc5)c5ccc(Cl)cc5)CC4)c(F)cc3C2=O)C(=O)N1 (stereo not shown) [GT-03699, 3-(5-((4-(bis(4-chlorophenyl)methyl)piperazin-1-yl)methyl)-6-fluoro-1-oxoisoindolin-2-yl)piperidine-2,6-dione]			10 to 50 nM	50 to 100 nM		50 to 100 nM	50 to 100 nM				A (A represents 0% ≤ substrate protein remaining % ≤ 50%)	A (A represents 0% ≤ substrate protein remaining % ≤ 50%)	B (B represents substrate protein remaining % > 50%)	
O=C1CCC(N2Cc3cc(CN4CCN(C(c5cccc(F)c5)c5cccc(F)c5)CC4)cc(F)c3C2=O)C(=O)N1 (stereo not shown) [GT-03704, 3-(5-((4-(bis(3-fluorophenyl)methyl)piperazin-1-yl)methyl)-7-fluoro-1-oxoisoindolin-2-yl)piperidine-2,6-dione]	< 500 nM	50 to 100 nM	1 to 10 nM	10 to 50 nM	100 to 500 nM	10 to 50 nM	10 to 50 nM		50 to 100 nM	100 to 500 nM	A (A represents 0% ≤ substrate protein remaining % ≤ 50%)	A (A represents 0% ≤ substrate protein remaining % ≤ 50%)	B (B represents substrate protein remaining % > 50%)	
O=C1CCC(N2Cc3cc(CN4C5CCC4CN(C(c4ccccc4)c4ccccc4)C5)c(F)cc3C2=O)C(=O)N1 (stereo not shown) [GT-03839, 3-(5-((3-benzhydryl-3,8-diazabicyclo[3.2.1]octan-8-yl)methyl)-6-fluoro-1-oxoisoindolin-2-yl)piperidine-2,6-dione]	1000 to 1900 nM	50 to 100 nM	10 to 50 nM	10 to 50 nM		10 to 50 nM	10 to 50 nM		10 to 50 nM	500 to 1000 nM	A (A represents 0% ≤ substrate protein remaining % ≤ 50%)	A (A represents 0% ≤ substrate protein remaining % ≤ 50%)	B (B represents substrate protein remaining % > 50%)	
O=C1CCC(N2Cc3cc(CN4CCN([C@H](c5ccccc5)c5ccccn5)CC4)ccc3C2=O)C(=O)N1 (stereo partly drawn) [GT-04523, 3-(1-oxo-5-((4-((R)-phenyl(pyridin-2-yl)methyl)piperazin-1-yl)methyl)isoindolin-2-yl)piperidine-2,6-dione]	500 to 1000 nM	50 to 100 nM		1 to 10 nM	50 to 100 nM	1 to 10 nM	1 to 10 nM	500 to 1000 nM		10 to 50 nM	A (A represents 0% ≤ substrate protein remaining % ≤ 50%)	A (A represents 0% ≤ substrate protein remaining % ≤ 50%)	A (A represents 0% ≤ substrate protein remaining % ≤ 50%)	
O=C1CCC(N2Cc3cc(CN4CCN([C@@H](c5ccccc5)c5ccccn5)CC4)ccc3C2=O)C(=O)N1 (stereo partly drawn) [GT-04524, 3-(1-oxo-5-((4-((S)-phenyl(pyridin-2-yl)methyl)piperazin-1-yl)methyl)isoindolin-2-yl)piperidine-2,6-dione]	500 to 1000 nM	500 to 1000 nM		10 to 50 nM	10 to 50 nM	10 to 50 nM	10 to 50 nM			100 to 500 nM	A (A represents 0% ≤ substrate protein remaining % ≤ 50%)	A (A represents 0% ≤ substrate protein remaining % ≤ 50%)	A (A represents 0% ≤ substrate protein remaining % ≤ 50%)	
Nc1cccc2c1CN(C1CCC(=O)NC1=O)C2=O (stereo not shown) [lenalidomide, reference compound]														IC50 ([2]; MDA-MB-231, read-out: inhibitory activity (IC50, nM) MDA-MB-231): > 10000 nM; IC50 ([3]; CCRF-CEM, read-out: inhibitory activity (IC50, nM) CCRF-CEM): > 10000 nM; IC50 ([4]; CAL-62, read-out: inhibitory activity (IC50, nM) CAL-62): > 10000 nM; IC50 ([5]; Jurkat, read-out: inhibitory activity (IC50, nM) Jurkat): > 10000 nM; IC50 ([6]; MM.1R, read-out: inhibitory activity (IC50, nM) MM.1R): > 10000 nM; IC50 ([7]; read-out: inhibitory activity (IC50, nM) MM.1S): > 10000 nM; IC50 ([8]; TMD8, read-out: inhibitory activity (IC50, nM) TMD8): > 10000 nM; IC50 ([9]; Kasumi 1, read-out: inhibitory activity (IC50, nM) Kasumi-1): > 10000 nM; IC50 ([10]; NCI-H146, read-out: inhibitory activity (IC50, nM) H146): > 10000 nM
Nc1cccc2c1C(=O)N(C1CCC(=O)NC1=O)C2=O (stereo not shown) [pomalidomide, reference compound]		> 10000 nM	5000 to 10000 nM	> 10000 nM	> 10000 nM	> 10000 nM	500 to 1000 nM	5000 to 10000 nM	> 10000 nM	> 10000 nM				
